What follows are compounds tested against T1, MRGPRX2 (Homo sapiens, UniProt Q96LB1) (assay: MRGPRX2 IP1 HTRF assay). Conditions: CHO-K1 cells stably expressing human MRGPRX2; IP1 accumulation; agonist Cortistatin 14 1 μM.
T1 sequence (Q96LB1 1-330): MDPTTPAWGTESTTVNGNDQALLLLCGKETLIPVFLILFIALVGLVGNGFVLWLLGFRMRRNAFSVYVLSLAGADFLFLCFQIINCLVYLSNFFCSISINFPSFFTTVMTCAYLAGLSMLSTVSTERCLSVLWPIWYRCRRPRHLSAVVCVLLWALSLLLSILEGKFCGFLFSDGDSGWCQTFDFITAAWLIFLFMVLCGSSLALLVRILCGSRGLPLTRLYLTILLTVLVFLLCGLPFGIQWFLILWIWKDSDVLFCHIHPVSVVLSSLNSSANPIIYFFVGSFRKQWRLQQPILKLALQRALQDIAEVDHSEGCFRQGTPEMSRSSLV
Format: cell-based
Parameters: host or cells: CHO-K1
Text: Example B: MRGPRX2 IP1 HTRF Assay
This assay measures compound inhibition of myo-Inositol 1 phosphate (IP1) accumulation in CHO-K1 cells. Chinese hamster ovary (CHO-K1) cells stably expressing human MRGPRX2 were purchased from GenScript (Piscataway, NJ).
For the HTRF IP1 determination, an IP-One GqKit (Perkin Elmer Cisbio, Waltham, MA), which includes all reagents and buffers in this protocol, was used. The cells were maintained in culture medium (Ham's F-12K) containing 10% (v/v) FBS, and 200 μg/mL Zeocin. For the assay, the cells were harvested and resuspended in culture medium with 2% FBS and without Zeocin, then were passed through a 40 μm filter. Cells were added at 20000 cells in a 5 μL/well to a 384-well white small volume cell culture plate (Greiner VWR, Radnor, PA) which contained 50 nL/well of test compound serially diluted at a selected concentration range in DMSO. 5 μL/well of prepared 2× Stimulation Buffer2 was then added to plates and was incubated at 37° C. with 5% CO2 for 1 h. 5 μL/well of agonist Cortistatin 14 (Bio-TechneR&D Systems, Minneapolis, MN) in 1× Stimulation Buffer2, for a 1 μM final concentration, was then added to plates and incubated at 37° C. with 5% CO2 for 1 h. 6 μL/well of 1:20 diluted Detection Reagent Mix (d2 and Cryptate) was added to the plates and incubated for 1 h in the dark. Plates were read on the PHERAstar microplate reader (BMG Labtech Cary, NC) to determine the HTRF ratio of the acceptor and donor emission signals. The IP1 concentrations were calculated from a standard curve following the IP-One GQ kit instructions. Wells with DMSO only and wells with high concentration of reference antagonist were used as controls for normalization. Compound IC50 curves were globally fitted with 3- or 4-parameter Hill equation in a Genedata Screener (Genedata Basel, Switzerland).

IC50	Structure (SMILES)
0.1 to 1 µM	NC(=O)N1CCC(CNc2cc(Cl)nc3nc(C(F)(F)F)cn23)(c2ccccc2)CC1 [Example 1, 4-(((7-Chloro-2-(trifluoromethyl)imidazo[1,2-a]pyrimidin-5-yl)amino)methyl)-4-phenylpiperidine-1-carboxamide]
0.1 to 1 µM	NC(=O)N1CCC(CNc2nccc3nc(C(F)(F)F)cn23)(c2ccccc2)CC1 [Example 2, 4-Phenyl-4-(((2-(trifluoromethyl)imidazo[1,2-c]pyrimidin-5-yl)amino)methyl)piperidine-1-carboxamide]
0.0001 to 0.1 µM	CNC(=O)N1CC(CNc2cc(Cl)cc3nc(C(F)(F)F)cn23)(c2ccc(F)cn2)C1 [Example 25, 3-(((7-Chloro-2-(trifluoromethyl)imidazo[1,2-a]pyridin-5-yl)amino)methyl)-3-(5-fluoropyridin-2-yl)-N-methylazetidine-1-carboxamide]
0.0001 to 0.1 µM	CNC(=O)N1CC(CNc2cc(C(F)(F)F)nc3cc(C(F)(F)F)nn23)(n2cc(F)cn2)C1 [Example 41, 3-(((2,5-Bis(trifluoromethyl)pyrazolo[1,5-a]pyrimidin-7-yl)amino)methyl)-3-(4-fluoro-1H-pyrazol-1-yl)-N-methylazetidine-1-carboxamide]
0.0001 to 0.1 µM	Nc1nc(N2CCC(CNc3cc(C(F)F)nc4cc(C(F)(F)F)nn34)(c3ccccc3)CC2)n[nH]1 [Example 42, N-((1-(5-Amino-1H-1,2,4-triazol-3-yl)-4-phenylpiperidin-4-yl)methyl)-5-(difluoromethyl)-2-(trifluoromethyl)pyrazolo[1,5-a]pyrimidin-7-amine]
0.0001 to 0.1 µM	C[C@]1(O)C[C@@H](NC(=O)N2CC(CNc3cc(C(F)(F)F)nc4cc(C(F)(F)F)nn34)(c3ccc(F)cc3)C2)C1 [Example 52, 3-(((2,5-Bis(trifluoromethyl)pyrazolo[1,5-a]pyrimidin-7-yl)amino)methyl)-3-(4-fluorophenyl)-N-((1s,3s)-3-hydroxy-3-methylcyclobutyl)azetidine-1-carboxamide]

What follows are compounds tested against T1, MRGPRX2 (assay: MRGPRX2 β-Arrestin recruitment assay (PathHunter)). Conditions: PathHunter CHO-K1 MRGPRX2 β-Arrestin cell line; agonist Cortistatin 14 0.25 μM.
Format: cell-based
Parameters: host or cells: CHO-K1 (PathHunter)
Text: Example C: MRGPRX2 P-Arrestin Assay
This assay measures compound inhibition of P-Arrestin recruitment, which is part of the G protein-independent pathway that results from the ligand-activated GPCR phosphorylation by specific GPCR kinases. The PathHunter CHO-K1 MRPGRX2 B-Arrestin Cell line stably expressing ProLink tagged MRGPRX2 and Enzyme Acceptor Tagged B-Arrestin was purchased from Eurofins DiscoverX, (Fremont, CA).
The cells were maintained in culture medium from the Europhins DiscoverX Cell Culture Kit-107 which includes FBS, hygromycin B and G418. For the assay, the cells were harvested and were resuspended with Cell Plating Reagent 2 (Eurofins DiscoverX). Cells were added 10000 cells in 25 μL/well to a 384-well black cell culture plate (Greiner VWR, Radnor, PA) which contained 125 nL/well of compound at a selected serially diluted concentration range or DMSO. The plate was incubated at 37° C. with 5% CO2 for 1 h. 2 μL/well of agonist Cortistatin 14 was diluted in Protein Dilution Buffer, (Eurofins DiscoverX) for a final concentration of 0.25 μM, was added and the plate was incubated at 37° C. with 5% CO2 for 90 min. 14 μL/well of Detection Reagent Mix (PathHunter Detection Kit, Eurofins DiscoverX) was added to the plates and further incubated for 1 h in the dark. Plates were read on the PHERAstar microplate reader (BMG Labtech Cary, NC) measuring luminescence 0.1 to 1 second per well. Data was normalized using DMSO only wells and wells with high concentration of reference antagonist as controls. Compound IC50 curves were globally fitted with 3- or 4-parameter Hill equation in a Genedata Screener (Genedata Basel, Switzerland).

IC50	Structure (SMILES)
0.0001 to 0.1 µM	OC1CCC(CNc2cc(C(F)(F)F)nc3cc(Br)nn23)(c2ccncc2)C1 (racemic) [Example 86, 3-(((2-Bromo-5-(trifluoromethyl)pyrazolo[1,5-a]pyrimidin-7-yl)amino)methyl)-3-(pyridin-4-yl)cyclopentan-1-ol]
> 1 µM	OCC1CC1(CNc1cc(C(F)(F)F)nc2cc(Br)nn12)c1ccccn1 (single isomer, unassigned) [Example 88, (2-(((2-Bromo-5-(trifluoromethyl)pyrazolo[1,5-a]pyrimidin-7-yl)amino)methyl)-2-(pyridin-2-yl)cyclopropyl)methanol]
0.1 to 1 µM	OCC1CC1(CNc1cc(C(F)(F)F)nc2cc(Br)nn12)c1ccccc1 (single isomer, unassigned) [Example 89, (2-(((2-Bromo-5-(trifluoromethyl)pyrazolo[1,5-a]pyrimidin-7-yl)amino)methyl)-2-phenylcyclopropyl)methanol]
0.0001 to 0.1 µM	CNC(=O)N1CC(CNc2cc(Cl)cc3nc(C(F)(F)F)cn23)(c2ccc(F)cn2)C1 [Example 25, 3-(((7-Chloro-2-(trifluoromethyl)imidazo[1,2-a]pyridin-5-yl)amino)methyl)-3-(5-fluoropyridin-2-yl)-N-methylazetidine-1-carboxamide]
0.0001 to 0.1 µM	CNC(=O)N1CC(CNc2cc(C(F)(F)F)nc3cc(C(F)(F)F)nn23)(n2cc(F)cn2)C1 [Example 41, 3-(((2,5-Bis(trifluoromethyl)pyrazolo[1,5-a]pyrimidin-7-yl)amino)methyl)-3-(4-fluoro-1H-pyrazol-1-yl)-N-methylazetidine-1-carboxamide]
0.0001 to 0.1 µM	Nc1nc(N2CCC(CNc3cc(C(F)F)nc4cc(C(F)(F)F)nn34)(c3ccccc3)CC2)n[nH]1 [Example 42, N-((1-(5-Amino-1H-1,2,4-triazol-3-yl)-4-phenylpiperidin-4-yl)methyl)-5-(difluoromethyl)-2-(trifluoromethyl)pyrazolo[1,5-a]pyrimidin-7-amine]
0.0001 to 0.1 µM	O=c1cc(N2CC(CNc3cc(C(F)(F)F)nc4cc(C(F)(F)F)nn34)(c3ccc(F)cc3)C2)ccn1C1CC1 [Example 51, 4-(3-(((2,5-Bis(trifluoromethyl)pyrazolo[1,5-a]pyrimidin-7-yl)amino)methyl)-3-(4-fluorophenyl)azetidin-1-yl)-1-cyclopropylpyridin-2(1H)-one]
0.0001 to 0.1 µM	C[C@]1(O)C[C@@H](NC(=O)N2CC(CNc3cc(C(F)(F)F)nc4cc(C(F)(F)F)nn34)(c3ccc(F)cc3)C2)C1 [Example 52, 3-(((2,5-Bis(trifluoromethyl)pyrazolo[1,5-a]pyrimidin-7-yl)amino)methyl)-3-(4-fluorophenyl)-N-((1s,3s)-3-hydroxy-3-methylcyclobutyl)azetidine-1-carboxamide]
0.0001 to 0.1 µM	N#CC12CC(NC(=O)N3CC(CNc4cc(C(F)(F)F)nc5cc(C(F)(F)F)nn45)(c4ccc(F)cn4)C3)(C1)C2 [Example 64, 3-(((2,5-Bis(trifluoromethyl)pyrazolo[1,5-a]pyrimidin-7-yl)amino)methyl)-N-(3-cyanobicyclo[1.1.1]pentan-1-yl)-3-(5-fluoropyridin-2-yl)azetidine-1-carboxamide]
0.0001 to 0.1 µM	[2H]C([2H])([2H])c1cc(NCC2(c3ccc(F)cc3)CN(C(N)=O)C2)n2nc(C(F)(F)F)cc2n1 [Example 70, 3-(4-Fluorophenyl)-3-(((5-(methyl-d3)-2-(trifluoromethyl)pyrazolo[1,5-a]pyrimidin-7-yl)amino)methyl)azetidine-1-carboxamide]
0.0001 to 0.1 µM	CCc1cc(NCC2(c3ccc(F)cc3)CCC(N)(C#N)CC2)n2nc(C(F)(F)F)cc2n1 (stereo not shown) [Example 72, 1-Amino-4-(((5-ethyl-2-(trifluoromethyl)pyrazolo[1,5-a]pyrimidin-7-yl)amino)methyl)-4-(4-fluorophenyl)cyclohexane-1-carbonitrile]
0.0001 to 0.1 µM	CO[C@H]1C[C@](CNc2cc(C(F)(F)F)nc3cc(C(F)(F)F)nn23)(c2ccccc2)C1 [Example 75, N-(((1s,3s)-3-Methoxy-1-phenylcyclobutyl)methyl)-2,5-bis(trifluoromethyl)pyrazolo[1,5-a]pyrimidin-7-amine]
0.0001 to 0.1 µM	NC(=O)C1(N)CC(CNc2cc(C(F)(F)F)nc3cc(C(F)(F)F)nn23)(c2ccc(F)cc2)C1 (stereo not shown) [Example 76, 1-Amino-3-(((2,5-bis(trifluoromethyl)pyrazolo[1,5-a]pyrimidin-7-yl)amino)methyl)-3-(4-fluorophenyl)cyclobutane-1-carboxamide]
0.0001 to 0.1 µM	NC(=O)N1CC(CNc2cc(Cl)cc3nc(C(F)(F)F)nn23)(c2ccccc2)C1 [Example 79, 3-(((7-Chloro-2-(trifluoromethyl)-[1,2,4]triazolo[1,5-a]pyridin-5-yl)amino)methyl)-3-phenylazetidine-1-carboxamide]
0.0001 to 0.1 µM	OC1CC(CNc2cc(C(F)(F)F)nc3nc(C(F)(F)F)cn23)(c2ccc(F)cc2)C1 (stereo not shown) [Example 80, 3-(((2,7-Bis(trifluoromethyl)imidazo[1,2-a]pyrimidin-5-yl)amino)methyl)-3-(4-fluorophenyl)cyclobutan-1-ol]
0.0001 to 0.1 µM	CNC1CCC(CNc2cc(C(F)(F)F)nc3cc(Br)nn23)(c2cccnc2)C1 (stereo not shown) [Example 87, 2-Bromo-N-((3-(methylamino)-1-(pyridin-3-yl)cyclopentyl)methyl)-5-(trifluoromethyl)pyrazolo[1,5-a]pyrimidin-7-amine]
0.1 to 1 µM	Cc1ccc(C2(CNc3cc(C(F)(F)F)nc4cc(C(F)(F)F)nn34)CN(S(N)(=O)=O)C2)cn1 [Example 97, 3-(((2,5-Bis(trifluoromethyl)pyrazolo[1,5-a]pyrimidin-7-yl)amino)methyl)-3-(6-methylpyridin-3-yl)azetidine-1-sulfonamide]
> 1 µM	[2H]C([2H])([2H])NC(=O)N1CC(CNc2cc(C3CC3)nc3cc(C(F)(F)F)nn23)(c2ccc(C(=O)N(C)C)cc2)C1 [Example 107, 3-(((5-Cyclopropyl-2-(trifluoromethyl)pyrazolo[1,5-a]pyrimidin-7-yl)amino)methyl)-3-(4-(dimethylcarbamoyl)phenyl)-N-(methyl-d3)azetidine-1-carboxamide]
0.1 to 1 µM	[2H]C([2H])([2H])NC(=O)N1CC(CNc2cc(C3CCC3)nc3cc(C(F)(F)F)nn23)(c2ccc(F)cc2)C1 [Example 108, 3-(((5-Cyclobutyl-2-(trifluoromethyl)pyrazolo[1,5-a]pyrimidin-7-yl)amino)methyl)-3-(4-fluorophenyl)-N-(methyl-d3)azetidine-1-carboxamide]

— patent US20250084087A1, “BICYCLIC HETEROCYCLES AS MRGPRX2 ANTAGONISTS” (Incyte Corporation, priority 2023, published 2025)
